The nature of data set [1]: Tanshinone bile excretion and intrahepatic transformation. Type of data set: in vivo, rats. The protocol:
The experimental animal is male rats each weighs 350-400 g. Intraperitoneal anesthesia with 10% of 1 g/kg malarin is employed. Insert it into the common bile duct with infantile scalp needle. After it is fixed, collect bile, for 1 hour quantity, to be used as blank contrast. Small amount of dimethyl formamide added to the medicine. And then, 1% carboxymethyl cellulose is diluted to 10 mg/ml. Administer to the duodenum and followed by scheduled fixed quantity of bile collection. The bile stays overnight in the fridge. Abstract twice with chloroform and combine with chloroform liquid. Conduct water bath and dry it by evaporation. Keep it in the desiccators. Before the test, fixed quantity dilution is conducted by using 50 ml chloroform and followed by high pressure liquid's separation and fixation of quantity. The change of Tanshinone in the liver hemogenate: After a larger male […], weighs 160 g, is anesthetized, its liver is taken and weighed. Use 0.15M potassium chloride and 0.24M amide to manufacture hemogenate. Use double-deck gauze for filtrating. Again, with the above-mentioned solution, dilute the filtrate to every 10 ml which equals to the 6 g weight of the liver tissue. Add 4 ml of pH 7.4 phosphoric buffer solution and 2 ml liver hemogenate to the 100 ml conical flask. 1 mg specimen of Tanshinone dissolves in 95% of 0.2 ml ethanol. 0.2 ml of 95% ethanol liquid, which contains no tashinone, is added to the control group. Keep it warm at 37° C. for 2 hours. When the reaction ceases, use 12 ml chloroform to extract twice separately. Merge with the extract, and conduct water bath and dry it by evaporation. Before the test, the specimen is dissolved with 100 ml chloroform. Use the thin layer for separating and quantity fixing [silica-CMC thin layer; developer is benzene-acetone (95:5)]. […] The peak of excretion takes place in about 3 hours after the administration. […] Quantity of Tanshinone IIA in the bile excretion from animal of such group is 5 to 10 times higher than the Tanshinone IIA group. […]

The nature of data set [2]: puerarin aglycone, left ventricular function index. The data set is classed as in vivo. To be noted: dog. The text has this:
Study proves puerarin is able to mitigate the angina pectoris, contracted, remarkably and improve the ischemic electrocardiogram. It reduces the myocardial oxygen consumption. Puerarin can slow down the rate of the heart pulsation and enhance the myocardial systolic power. […] Puerarin is able to outstandingly reduce the tension-time index (TTI) and the ascending rate of the left ventricular pressure. The effect of puerarin on ischemic myocardium is reducing the resistance of the coronary artery's lateral branch. Puerarin is able to mitigate clearly the PG angina pectoris and improve the ischemic electrocardiogram. […] It enables the reduction of coronary artery's resistance and the increase of coronary artery's flow volume. Thus, it is advantageous to the improvement of balance of supply and need. And also, it has the obvious effect on resisting the arrhythmia.

A further data set is described as follows: solubility. The protocol: Matrine is also called matricaria. Its molecular formula is C15H24N2O and its molecular weight is 248.36. It has four isomers: α, β, γ, and δ isomers. α-matrine is the one commonly seen. It is a needle or rhombohedral crystal, having a melting point 76° C. and [α]D+39.1° (H2O).
Oxymatrine has a molecular formula C15H24N2O2 and a molecular weight 264.36. It is a colorless columnar crystal (Me2CO), melting point 162° C. (hydrate), 207° C. (anhydrate), [α]D+47.7° (C2H5OH). […] It can change to matrine through reaction with SO2.

Data set [3] concerns isolated guinea pig's right and left atrium. The data set can be described thus: isolated guinea pig's atria. The text has this: The effect of alkaloids on heart function is studied. […] Furthermore, it presents dosage dependent relation. The function of its negative frequency, positive inotropic action and negative maximum driving force (MDF) appears to be linear correlation. Matrine is able to inhibit the aconitine to induce the rats's left atrial automatic rhythmicity effect, or, prolong the aconitine to induce the latent period's auto-rhythmicity or slow down its initial frequency. Also, it is able to heighten the ouabin to induce the guinea pig's right atrial arrhythmia and the adrenal gland injection to induce the auto-consistency of guinea pig's left atrium. Moreover, it has the enhancement effect on the positive inotropic action of ouabin.
In fact, all of them are dosage dependence relation. […] It clearly prolongs inducement of the latent period of auto-rhythmicity and slows down the inducement of auto-rhythmicity's initial frequency. It is also able to raise ouabin to induce the isolated guinea pig's right atrial arrhythmia and the adrenal gland inducing the isolated guinea pig's left atrial auto-rhythmicity's consistency.

A short description of data set [4]: intravenous matrine injection in cat. Type of data set: in vivo. The following applies: 1 mg/kg i.v. The text has this:
The curative effect of matrine upon the premature heartbeat, caused by various reasons, is relatively better. It is partially effective on the supraventricular arrhythmia. In clinical study, matrine's tablet is employed to treat 167 cases of arrhythmia.

A short description of data set [5]: intravenous matrine in rats: arrhythmia and ECG. The data set is classed as in vivo. The text has this:
(§1) It is antagonistic to the acceleration of heart rate induced by isopropylnoradrenaline.

The test system of data set [6] is isolated rats's right atrium. Put plainly: isolated rats's right atrium.
Source text: as §1

A short description of data set [7]: intramuscular matrine crystal in dog. As for the experimental part: Intramuscular injection of matrine crystal 200 mg/kg given to the dog. […] Dog is administrated with daily intramuscular injection 0.5 g. […] 1-3 treatment courses are carried out altogether.
The conditions of data set [8]: subcutaneous injection; cited from earlier work.
The nature of data set [9]: pharmacokinetics of oxymatrine and matrine in mice. To be noted: mouse, in vivo.

“Also recorded” adds a separate entry of the source.

As for `C[C@H]1COC2=C1C(=O)C(=O)c1c2ccc2c1CCCC2(C)C` [latent Tanshinone], in [1] (rat, in vivo), the “transformation in the liver” value is reported as “can transform into Tanshinone IIA”.
Take `O=c1c(-c2ccc(O)cc2)coc2cc(O)ccc12` [puerarin aglycone]: in data set [2], the “lowering of left ventricular function index” value is listed as 14.3%.
By LD50 is commonly meant the dose expected to kill half of the subjects tested. As to Matrine, in “solubility”, the solubility result is “soluble in water, benzene, chloroform, ether and carbon sulfide and nearly insoluble in petroleum ether”. Further, in data set [3], the “left atrial maximum driving force (MDF)” value is “reduces the left atrial maximum driving force” and the “right atrial systolic power” value is reported as “increases the right atrial systolic power”. Besides, the “aconitine-induced left atria automatic rhythmicity” value in data set [3] (3 μmol/L) is given as “significantly inhibits”. For the same molecule, in [3] (dosage dependent), the “automatic frequency of right atrium” value is recorded as “slow down the automatic frequency of guinea pig's right atrium; also recorded: obvious negative frequency effect”. Further, in data set [4], the “blood flow capacity of the coronary artery” value was “increases” and the heart rate entry is recorded as “slowdown of cat's heart rate emerges”. Further, the heart rate entry in [5] (18.75 mg/kg) is “heart rate slows down clearly”. Further, in data set [5] (i.v.), the “arrhythmia caused by aconitine, barium chloride and ligation of coronary artery” value is “significantly able to resist the arrhythmia”. Besides, in [6], the calcium-antagonism effect entry is “no calcium-antagonism effect” and the “right atrial spontaneous frequency” value is listed as “clearly slows down”. Further, in [7] (200 mg/kg intramuscular, 6 hours of observation), the abnormal phenomenon entry is recorded as “no abnormal phenomenon except slightly being quiet”. Also, the “mental state, activity condition and hemogram” value in data set [7] (0.5 g daily intramuscular, 14 days) is reported as “no apparent abnormal phenomenon”. Besides, the “pathologic examination of the myocardium” value in [7] (0.5 g daily, 13-day courses, 1-3 courses) is on record as “no obvious change”. The LD50 in data set [8] is 297 ± 18 mg/kg. The gastrointestinal absorption result in data set [9] is “easier to be absorbed by the gastrointestinal tract”.
As for Tanshinone, in [1] (duodenal administration), the “time of peak of bile excretion” value is recorded as “about 3 hours” and the “time until Tanshinone is found in the bile” value was “in about an hour”.

These data come from patent US7384657B2, “Composition of natural herb extract for treating cardiovascular disease and its method of preparation thereof” (priority 2004, dated 2008).
